Measurements taken from paper PMC8910920 (International Journal of Molecular Sciences, 2022).
Values joined by “and” are separate entries in the source; they are usually repeats but may differ in a detail not shown here. Equal entries are not always repeated. “Also recorded” adds a separate entry of the source.

Assays:
[1] = biological target: T1, hTRPV1 (Homo sapiens, UniProt Q8NER1); assay: hTRPV1 agonist assay (Ca2+ fluorimetry, CHO cells); type: cell-based; details: 10 μM
T1 construct: host or cells: CHO
T1 sequence (Q8NER1 whole entry): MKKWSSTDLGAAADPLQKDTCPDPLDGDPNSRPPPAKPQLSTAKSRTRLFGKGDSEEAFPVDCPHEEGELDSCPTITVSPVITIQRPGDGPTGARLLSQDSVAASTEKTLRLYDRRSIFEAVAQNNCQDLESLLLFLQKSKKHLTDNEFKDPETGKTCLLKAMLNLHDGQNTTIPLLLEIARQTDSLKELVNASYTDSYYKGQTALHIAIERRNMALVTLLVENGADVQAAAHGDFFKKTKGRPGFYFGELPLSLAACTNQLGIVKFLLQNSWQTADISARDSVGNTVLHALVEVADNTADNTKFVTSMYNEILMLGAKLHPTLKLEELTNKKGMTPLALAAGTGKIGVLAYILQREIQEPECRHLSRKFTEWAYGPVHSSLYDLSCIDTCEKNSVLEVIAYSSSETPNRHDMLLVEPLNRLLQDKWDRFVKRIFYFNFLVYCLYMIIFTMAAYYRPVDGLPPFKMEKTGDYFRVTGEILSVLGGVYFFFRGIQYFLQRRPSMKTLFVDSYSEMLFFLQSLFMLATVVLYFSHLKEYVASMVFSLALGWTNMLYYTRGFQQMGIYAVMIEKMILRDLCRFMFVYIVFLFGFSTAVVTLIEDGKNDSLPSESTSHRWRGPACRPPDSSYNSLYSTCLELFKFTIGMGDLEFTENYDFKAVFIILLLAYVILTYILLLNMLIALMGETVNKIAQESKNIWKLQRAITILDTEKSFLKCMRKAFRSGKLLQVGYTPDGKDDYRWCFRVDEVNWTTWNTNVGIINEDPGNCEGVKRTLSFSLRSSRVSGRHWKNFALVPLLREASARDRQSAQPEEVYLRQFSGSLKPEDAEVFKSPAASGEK
Method: These studies were subcontracted to Eurofins-CEREP or Eurofins-PANLABS. Briefly, agonists and antagonist assays were performed in cell cultures overexpressing the corresponding channel (CHO: TRPV1 and TRPA1; HEK293: TRPV3 and ASIC3). In vitro pharmacology, cellular channel functional assays: the compound was prepared in assay buffer to the final concentration, 10 μM. The compound wells, reference agonist and background vehicle controls were prepared in DMSO at 0.3%. The reference agonist for each Ion Channel assayed was prepared in a similar manner to serve as the assay control. […] The agonist assay was conducted on fluorimeter instruments where the test compound, vehicle controls, and reference agonist were added to the assay plate after a fluorescence baseline was established. […] For the antagonist assay, the compound was pre-incubated for five minutes at room temperature, and then challenged with the EC80 concentration of the reference agonist after establishment of a fluorescence baseline. […] Binding assay results are expressed as a percent of control specific binding. […] Aqueous solubility (μM) was determined by comparing the peak area of the principal peak in a calibration standard (200 μM) containing organic solvent (methanol/water, 60/40, v/v) with the peak area of the corresponding peak in a buffer sample. […] The amount of compound in organic phase was calculated by subtraction. […]

[2] = test system: serum proteins; assay: Protein binding; type: in vitro ADME, human
[3] = test system: NTG-induced mechanical hypersensitivity in C57BL6 mice; assay: NTG-induced mechanical hypersensitivity, von Frey test; type: in vivo, mouse
Description: Administration of NTG intermittently produces a baseline hypersensitivity to mechanical stimulation, which can be measured by the von Frey test. The mechanical stimulus was applied at different times to obtain the time course of the effects produced after compound administration, and both male and female mice were used to investigate a possible sex dimorphism.
C57BL6 mice (males and females, ≈25 g) (Envigo, Blackthorn, UK) were used for the study. All experiments were approved by the Institutional Animal and Ethical Committee of the Universidad Miguel Hernandez where experiments were conducted and they were in accordance with the guidelines of the Economic European Community and the Committee for Research and Ethical Issues of the International Association for the Study of Pain. All parts of the study concerning animal care were performed under the control of veterinarians. […] The 50% response threshold was calculated using the following formula:50% (g) threshold = (10^(Xf + kd))/10,000 where Xf is the value of the last von Frey filament applied; k is a correction factor based on pattern of responses (from the Dixon’s calibration table); d is the mean distance in log units between stimuli (here, 0.4).
Von Frey threshold for each animal was calculated, according to the formula, and data analysis was performed by using GraphPad 6.0. […]

Structure (SMILES): C[C@@H]1C(=O)N(C[C@H](Cc2ccccc2)N(Cc2ccccc2)Cc2ccccc2)[C@]1(Cc1ccccc1)C(=O)OC(C)(C)C [RGM8-51, 4(S)-Benzyl-3S-methyl-4-(tert-butoxy)carbonyl-1-[(2′S-dibenzylamino-3′-phenyl)prop-1′-yl]-2-oxoazetidine]
- hTRPV1 ago. (%) [1]: 31.3 ± 3.6%
- Binding to proteins (%) [2]: 100% and 99–100%
- NTG-induced mechanical hypersensitivity, male mice ([3]; 30 mg/kg i.p., 60 min post-administration (only this dose and time)): significantly blocked
- NTG-induced mechanical hypersensitivity, female mice ([3]; 10 and 30 mg/kg i.p., significant at 30 min, lasting even after 120 min): fully blocked; also recorded: significantly reduces the hypersensitivity threshold induced by NTG
